Experimental data from patent US12246010B2, “Formulations of tegavivint and related compounds” (Iterion Therapeutics, Inc., priority 2018, dated 2025).
≈ marks a conversion by molar mass, not a printed value. Where “and” joins values, the source holds several entries; their conditions need not be identical. Equal values may be shown once. Read-outs that look alike come from different tables or passages of the source.

Columns and labels:
[1] = Tegavivint solubility in water and organic solvents; assay type: physicochemical
Description: In organic solvents, tegavivint has solubilities as shown: DMSO (334 μg/mL), ethanol (260 μg/mL), methanol (299 μg/mL), acetone (1 mcg/mL), dichloromethane:ethanol (1:4) (1 mg/mL).

[2] = Pharmacokinetics after slow intravenous bolus in female Sprague-Dawley rats; assay type: in vivo; details: 10 mg/kg slow intravenous bolus; for half-life: iv, 10 mg/kg
Description: The objective of this study was to investigate the pharmacokinetics of tegavivint following a single intravenous slow bolus administration of tegavivint to female Sprague-Dawley rats.
Dose Preparation and Administration The stock formulation (25 mg/mL) was provided. Accurately, 600 μL of dose formulation (Stock, 25 mg/mL) was transferred to labeled glass container. To this, 2.4 mL of 5% dextrose solution was added, vortex mixed and sonicated to obtain homogeneous suspension of 5 mg/mL strength. Animals were dosed underfed condition. Rats were administered a single dose of 10 mg/kg of tegavivint by slow intravenous bolus (over 1.5 min) jugular vein catheter using 1 mL BD syringe guided with 23 G blunt needle at a dose volume of 2 mL/kg. Syringes used for dosing were weighed before and after dose administration in order to calculate the actual dose administered.
Sample Collection and Processing Blood samples were collected at 0.083, 0.25, 0.5, 1, 2, 4, 6, 8, 12 and 24 h post dose. At each time point, approximately, 0.25 mL of blood was withdrawn from jugular vein of the cannulated rat and transferred to a labeled microfuge tube containing 200 mM K2EDTA (20 μL per mL of blood). Following sampling, equal volume of heparinized saline was replaced into the catheter. The blood samples were kept on wet ice at all times immediately after collection and the plasma was separated by centrifugation at 5000 g for 5 minutes at 4±2° C. The plasma samples were separated within 1 h of scheduled time and stored below −60° C. until bioanalysis.
Bioanalysis Bioanalysis was performed using fit-for-purpose LC-MS/MS method for the quantification of BC2059 in rat plasma samples. The calibration curve (CC) for the method consisted of at least 6 non-zero calibration standards along with a blank and blank with internal standard samples with a lower limit of quantification (LLOQ) of 0.050 μg/mL. Study samples were analyzed along with three sets of quality control samples (9 QC samples; low, medium and high QC samples in triplicate).
Pharmacokinetic Data Analysis The pharmacokinetic parameters for tegavivint were calculated using the non-compartmental analysis tool ([…]) of the validated Phoenix® WinNonlin® software (version 6.3). The area under the concentration time curve (AUClast and AUCinf) was calculated by linear trapezoidal rule. The CO (back extrapolated concentration at time zero) was estimated following intravenous bolus dose administration by back-extrapolating the first two concentration values. The total plasma clearance (CL) and volume of distribution at steady-state (Vss) were estimated values. The elimination rate constant value (k) was calculated by linear regression of the log-linear terminal phase of the concentration-time profile using at least 3 declining concentrations in terminal phase with a correlation coefficient of >0.8. The terminal half-life value (T½) was calculated using the equation 0.693/k. The alpha and beta half-lifes were calculated and reported.

[3] = test system: bleomycin-induced idiopathic pulmonary fibrosis (IPF); test: Bleomycin-induced IPF mouse model: body weight; assay type: in vivo, C57BL/6 male mice
Description: (§1) The purpose of this experiment was to investigate tegavivint nanosuspension in a mouse model of bleomycin-induced idiopathic pulmonary fibrosis (IPF). Test articles were as follows:
Tegavivint (BC2059) in a nano-milled suspension 25 mg/mL in 0.625% poloxamer 188 and 10% sorbitol. The test article was refrigerated at about 4° C.
Nebulizing equipment was Altera ultrasonic eRapid machine nebulizer (model #678G1002).
Animals were 8-12 week old C57BL/6 male mice (Jackson Lab, Bar Harbor, ME).
(§2) Murine model of pulmonary fibrosis was induced by intratracheally (IT) injected bleomycin (APP Pharmaceuticals, Schaumburg, IL). One dose of 0.025 U bleomycin dissolved in 50 microliters of Saline 0.9%, or PBS as control was administered to each animal on day 0.
(§3) Tegavivint nanosuspension was applied to Group 3 in the form of aerosols, through the method of whole body exposure. The mice were placed inside a plastic box. This box was sealed and connected by one of its sides to the outlet of the nebulizer device, and on the other side to a system of closed water. The whole procedure was carried out inside the fume hood of the animal room. In each treatment session, 5 ml of 25 mg/ml Tegavivint (125 mg) was nebulized over 15 min to each group of 4-5 mice in the chamber. […]
The body weight of animals was recorded on Days 0, 5, 8, 12, 16, 19, and 21.

[4] = test system: bleomycin-induced idiopathic pulmonary fibrosis (IPF); test: Bleomycin-induced IPF mouse model: lung mechanics (FlexiVent compliance); assay type: in vivo, C57BL/6 male mice
Description: as §1, §2
as §3, with “chamber. To increase exposure of the mice to the aerosol, Tegavivint that precipitated in the aerosol chamber was collected with a syringe and re-nebulized a second and a third time. Mice were nebulized twice a day between day 5 and day 21 after administration of bleomycin. Group 1 and 2 received nebulized vehicle 5 ml in the same manner.” for “chamber.”

[5] = Aerosol particle size distribution by cascade impactor; assay type: physicochemical; details: Covaris and Ball Mill (60 min); 0.1% Tween 80; 15.06 mg/mL; Hospitak
Description: Particle size distribution (PSD) of the test article was measured at the breathing zone using an In Tox, mercer style cascade impactor.
Particle size for test atmospheres was measured using an In-Tox Cascade impactor for suspensions prepared with 0.1% Tween 80 in ultrapure water, and the sponsor provided poloxamer suspension using a compressed air nebulizer.

[6] = female, Sprague-Dawley, plasma, rat

solubility ([1]; DMSO, organic solvent or mixture, read-out: solubility in DMSO): 334 µg/mL (≈ 567 µM)
solubility ([1]; acetone, organic solvent or mixture, read-out: solubility in acetone): 1 µg/mL (≈ 1.7 µM)
solubility ([1]; dichloromethane:ethanol (1:4), organic solvent or mixture, read-out: solubility in dichloromethane:ethanol (1:4)): 1000 µg/mL (≈ 1700 µM)
solubility ([1]; ethanol, organic solvent or mixture, read-out: solubility in ethanol): 260 µg/mL (≈ 442 µM)
solubility ([1]; methanol, organic solvent or mixture, read-out: solubility in methanol): 299 µg/mL (≈ 508 µM)
solubility ([1]; water, aqueous buffer, across the pH range of 2 to 10, read-out: solubility in water): < 0.25 µg/mL
CL lower than normal rat liver blood flow of 55 mL/min/kg [2]: about 5.5 fold
AUC(0-inf) [2, 6]: 17200 ng·h/mL
AUC(0-t) [2, 6]: 14600 ng·h/mL
MRT last [2, 6]: 4.07 h
C0 ([2]; female, Sprague-Dawley, plasma, rat, back extrapolated): 62.2 µg/mL
clearance ([2]; female, Sprague-Dawley, plasma, rat, mean, n=4): 9.92 mL/min/kg
Vd ([2]; female, Sprague-Dawley, plasma, rat, mean, n=4, read-out: Vss): 6.54 L/kg
half-life ([2]; female, Sprague-Dawley, rat, plasma, regression points 0.5, 1 and 2 h, read-out: T1/2 Alpha (converted)): 0.546 h
half-life ([2]; female, Sprague-Dawley, rat, plasma, regression points 6, 8, 12 and 24 h, read-out: T1/2 Beta (converted)): 13.8 h
Vss greater than normal body water of 0.7 L/kg ([2]; rat): ~9.34 fold
GSD [5]: 2.21
MMAD [5]: 1.26 µm
Structure (SMILES): C[C@@H]1C[C@H](C)CN(S(=O)(=O)c2ccc3c(c2)C(=NO)c2cc(S(=O)(=O)N4C[C@H](C)C[C@H](C)C4)ccc2C3=NO)C1 [BC2059, tegavivint]
effect on body weight loss caused by bleomycin ([3]; Group 3, inhaled): reversed the body weight loss
Change in body weight (%) ([3]; Group 3: IT bleomycin Day 0, 5 ml of 25 mg/ml tegavivint aerosol BID Day 5-21, individual animals): −2.83% and 5.2% and 7.3% (2×) and 7.9%
effect on lung compliance after bleomycin injury ([4]; Group 3, inhaled): reversed the compliance values to near those of the sham-treated controls
Compliance ([4]; Group 3: IT bleomycin Day 0, 5 ml of 25 mg/ml tegavivint aerosol BID Day 5-21, Day 21, individual animals): 0.05515 ml/cm H2O and 0.05604 ml/cm H2O and 0.06762 ml/cm H2O and 0.0543 ml/cm H2O and 0.0561 ml/cm H2O
